# Values of other authors, collected in article PMC12824232 (Nature Communications, 2025).
# Assays:
# [1] = test system: ER+/HER2− advanced breast cancer; conditions: patients with ESR1 mutations, phase 3 trial
# [2] = test system: patients with ER+/HER2− advanced breast cancer; conditions: phase 2 trial
Compound,median PFS [1] [months],patients with Grade 3/4 TRAEs [2] [%]
CCNCCc1ccc(CN(CC)c2cc(OC)ccc2[C@@H]2CCc3cc(O)ccc3C2)cc1 [elacestrant],3.8,
O=C1CC[C@H](N2Cc3cc(N4CCN(CC5CCN(c6ccc([C@@H]7c8ccc(O)cc8CC[C@@H]7c7ccccc7)cc6)CC5)CC4)ccc3C2=O)C(=O)N1 [vepdegestrant],,6
